Where two headings read alike, the source gives them in different places. *1 amine or outer side, *2 acyl side, *3 side chain or, on linkers, in order; H or OH if unused. Where a SMILES comes first, the peptide text is derived from it. Bridges are numbered along the chain shown (N, C = ends). [ ]: non-standard residue; d: D form. The star is where a group is joined. X5 = NC(=O)[C@H](CCCCNC(=O)CN1CCN(CC(=O)O)CCN(CC(=O)O)CCN(CC(=O)O)CC1)NC(=O)CCC(=O)NCCCOCCOCCOCCCN*; X13 = O=C(CN1CCN2CCN3CCN(CC1)CC(=O)[O][Lu]([O]C(=O)C2)[O]C(=O)C3)NCCCOCCOCCOCCCN*; X3 = O=C(O)CN1CCN(CC(=O)O)CCN(CC(=O)NCCCOCCOCCOCCCN*)CCN(CC(=O)O)CC1; NH(1-deoxy-D-glucityl) = OC[C@@H](O)[C@@H](O)[C@H](O)[C@@H](O)CN*; DOTA = O=C(O)CN1CCN(CC(=O)O)CCN(CC(=O)*)CCN(CC(=O)O)CC1; Trp(5-Cl) = N[C@@H](Cc1c[nH]c2ccc(Cl)cc12)C(=O)O; Pyridine(2,6-diCH2) = c1cc(C[*:1])nc(C[*:2])c1; Trp(5-F) = N[C@@H](Cc1c[nH]c2ccc(F)cc12)C(=O)O; Pro(4R-NH2) = N[C@H]1CN[C@H](C(=O)O)C1; mXylylene = c1cc(C[*:1])cc(C[*:2])c1; Glutaryl = O=C(CCCC(=O)[*:2])[*:1]; X29 = c1cc(CNCCN[*:2])cc(C[*:1])c1; X6 = c1cc(CSCCN[*:2])nc(C[*:1])c1; Hyp = O=C(O)[C@@H]1C[C@@H](O)CN1; X1 = O=C(CN1CCC(N[*:1])CC1)[*:2]; Suc = O=C(CCC(=O)[*:2])[*:1]; αMeK = C[C@](N)(CCCCN)C(=O)O; Thp = NC1(C(=O)O)CCOCC1; Aib = CC(C)(N)C(=O)O
Target: T1, GIPR (CHO-K1-hGIPR cells) (Homo sapiens, UniProt P48546)
T1 construct: host or cells: CHO-K1
T1 sequence (P48546 22-466): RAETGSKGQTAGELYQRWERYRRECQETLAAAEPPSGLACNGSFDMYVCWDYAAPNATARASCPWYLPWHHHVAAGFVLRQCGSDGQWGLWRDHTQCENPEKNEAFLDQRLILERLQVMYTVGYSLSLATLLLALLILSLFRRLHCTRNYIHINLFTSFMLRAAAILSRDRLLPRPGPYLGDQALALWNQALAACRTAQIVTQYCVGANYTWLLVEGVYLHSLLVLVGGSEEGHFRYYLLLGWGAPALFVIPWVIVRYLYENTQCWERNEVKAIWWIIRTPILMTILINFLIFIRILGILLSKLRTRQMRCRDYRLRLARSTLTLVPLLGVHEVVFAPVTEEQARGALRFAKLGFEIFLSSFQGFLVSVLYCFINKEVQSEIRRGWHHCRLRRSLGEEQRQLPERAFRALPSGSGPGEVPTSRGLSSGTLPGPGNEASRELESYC
Assay: FACS binding assay
Procedure: In order to determine binding of compounds according to the present invention to GIPR-expressing cells, a FACS binding assay was established.
CHO-K1-hGIPR cells (GenScript Biotech, #M00486) were cultured in Ham's F12 medium (Sigma-Aldrich, #N4888) including 10% fetal calf serum (FCS), 2 mM L-glutamine, 100 U/mL penicillin, 100 μg/mL streptomycin, 200 μg/mL Zeocin and 100 μg/mL HygromycinB. Cells were detached with Accutase (Biolegend, #BLD-423201) and washed in FACS buffer (PBS including 1% FCS). Cells were diluted in FACS buffer to a final concentration of 500.000 cells per mL. 200 μL of the cell suspension were transferred to a u-shaped non-binding 96-well plate (Greiner) and cells were washed in ice-cold FACS buffer.
Cells were washed twice in FACS buffer. An additional incubation step with 1 μg/mL APC-Streptavidin (Miltenyi; #130-106-791) in 50 μL FACS buffer for 30 min on ice was performed followed by two washes with FACS buffer.
Cells were analyzed in an Attune NxT flow cytometer. Median fluorescence intensities (MFI) of the APC/Cy5-channel were calculated by Attune NxT software. MFI values were plotted against peptide concentration and four parameter logistic (4PL) curve fitting and EC50/pEC50 or IC50/pIC50 calculations were performed using ActivityBase software.

[1] = competition with 20 nM GIP-057, 4° C., 1 hour, read-out: pIC50 Category (converted)

Row | IC50 [1] | Compound | other results
1 | < 10 nM | CC[C@H](C)[C@@H]1NC(=O)[C@H](CC(C)C)NC(=O)C(C)(C)NC(=O)[C@@H](NC(=O)[C@@H](CC(C)C)NC(=O)[C@H](CCC(=O)O)NC(=O)[C@@H]2CCCN2C(=O)[C@H](Cc2c[nH]c3ccc(F)cc23)NC(=O)[C@H](Cc2c[nH]c3ccccc23)NC(=O)[C@H](CC(=O)O)NC(C)=O)CSCc2cccc(c2)CSC[C@@H](C(=O)NCCCOCCOCCOCCCNC(=O)CCC(=O)N[C@@H](CCCCNC(=O)CN2CCN(CC(=O)O)CCN(CC(=O)O)CCN(CC(=O)O)CC2)C(N)=O)NC1=O [GIP-081, Ac-Asp-Trp-5Fw-Pro-Glu-leu-[Cys(3MeBn)-Aib-Leu-Ile-Cys]-Ttds-Lys(DOTA)-NH2] (Ac-DW[Trp(5-F)]PE[dL]C[Aib]LIC-X5; linker 7-11 via mXylylene) | –
2 | < 10 nM | CC[C@H](C)[C@@H]1NC(=O)[C@H](CC(C)C)NC(=O)C(C)(C)NC(=O)[C@@H](NC(=O)[C@@H](CC(C)C)NC(=O)[C@H](CCC(=O)O)NC(=O)[C@@H]2CCCN2C(=O)[C@H](Cc2c[nH]c3ccc(Cl)cc23)NC(=O)[C@H](Cc2c[nH]c3ccccc23)NC(=O)[C@H](CC(=O)O)NC(=O)CCC(=O)NCCCOCCOCCOCCCNC(=O)CN2CCN(CC(=O)O)CCN(CC(=O)O)CCN(CC(=O)O)CC2)CSCc2cccc(c2)CNCCNC1=O [GIP-093, DOTA-Ttds-Asp-Trp-5Clw-Pro-Glu-leu-[Cys(3MeBn)-Aib-Leu-Ile-en]] ({X3-Suc}-DW[Trp(5-Cl)]PE[dL]C[Aib]LI; linker 7-C via X29) | –
3 | < 10 nM | CC[C@H](C)[C@@H]1NC(=O)[C@H](CC(C)C)NC(=O)C2(CCOCC2)NC(=O)[C@@H](NC(=O)[C@@H](CC(C)C)NC(=O)[C@H](CC(N)=O)NC(=O)[C@@H]2C[C@@H](O)CN2C(=O)[C@H](Cc2c[nH]c3ccc(Cl)cc23)NC(=O)[C@H](Cc2c[nH]c3ccccc23)NC(=O)[C@H](CC(=O)O)NC(C)=O)CSCc2cccc(n2)CSC[C@@H](C(N)=O)NC1=O [GIP-205, Ac-Asp-Trp-5Clw-Hyp-Asn-leu-[Cys(2Lut)-Thp-Leu-Ile-Cys]-NH2] (Ac-DW[Trp(5-Cl)][Hyp]N[dL]C[Thp]LIC-NH2; linker 7-11 via Pyridine(2,6-diCH2)) | –
4 | 10 to 79.4 nM | CCOCCOCCOCCOCCOCCOCCOCCOCCOCCOCCOCCOCCOCCOCCOCCOCCOCCOCCOCCOCCOCCOCCOCCOCCOCCOCCOCCOCCOCCOCCOCCOCCOCCOCCOCCOCCOCC(=O)NC1CCN(CC(=O)N[C@@H](CC(=O)O)C(=O)N[C@@H](Cc2c[nH]c3ccccc23)C(=O)N[C@@H](Cc2c[nH]c3ccc(Cl)cc23)C(=O)N2C[C@H](N)C[C@H]2C(=O)N[C@@H](CCC(=O)O)C(=O)N[C@H](CC(C)C)C(=O)N[C@H]2CSCc3cccc(n3)CSC[C@@H](C(=O)NC3CCN(CC(=O)N[C@H](CCC(=O)NC[C@H](O)[C@@H](O)[C@H](O)[C@H](O)CO)C(N)=O)CC3)NC(=O)[C@H]([C@@H](C)CC)NC(=O)[C@H](CC(C)C)NC(=O)C3(CCN(C(=O)CN4CCN(CC(=O)O)CCN(CC(=O)O)CCN(CC(=O)O)CC4)CC3)NC2=O)CC1 [GIP-042, MeO36PEG-APAc-Asp-Trp-5Clw-Tap-Glu-leu-[Cys(2Lut)-Apc(DOTA)-Leu-Ile-Cys]-APAc-glu(AGLU)-NH2] | –
5 | – | CC[C@H](C)[C@@H]1NC(=O)[C@H](CC(C)C)NC(=O)C(C)(C)NC(=O)[C@@H](NC(=O)[C@@H](CC(C)C)NC(=O)[C@H](CCC(=O)O)NC(=O)[C@@H]2CCCN2C(=O)[C@H](Cc2c[nH]c3ccc(Cl)cc23)NC(=O)[C@H](Cc2c[nH]c3ccccc23)NC(=O)[C@H](CC(=O)O)NC(=O)CCC(=O)NCCCOCCOCCOCCCNC(=O)CN2CCN3CCN4CCN(CC2)CC(=O)[O][Lu]([O]C(=O)C3)[O]C(=O)C4)CSCc2cccc(n2)CSCCNC1=O [GIP-163, LuDOTA-Ttds-Asp-Trp-5Clw-Pro-Glu-leu-[Cys(2Lut)-Aib-Leu-Ile-AET]] ({X13-Suc}-DW[Trp(5-Cl)]PE[dL]C[Aib]LI; linker 7-C via X6) | IC50 (pIC50 Category, competition with 20 nM GIP-057, 4° C., 1 hour): < 10 nM
6 | – | CC[C@H](C)[C@@H]1NC(=O)[C@H](CC(C)C)NC(=O)[C@](C)(CCCCNC(=O)CN2CCN(CC(=O)O)CCN(CC(=O)O)CCN(CC(=O)O)CC2)NC(=O)[C@@H](NC(=O)[C@@H](CC(C)C)NC(=O)[C@H](CCC(=O)O)NC(=O)[C@@H]2C[C@@H](N)CN2C(=O)[C@H](Cc2c[nH]c3ccc(Cl)cc23)NC(=O)[C@H](Cc2c[nH]c3ccccc23)NC(=O)[C@H](CC(=O)O)NC(=O)CCCC(=O)NC[C@H](O)[C@@H](O)[C@H](O)[C@H](O)CO)CSCc2cccc(n2)CSC[C@@H](C(=O)NC2CCN(CC(=O)N[C@H](CCC(=O)NC[C@H](O)[C@@H](O)[C@H](O)[C@H](O)CO)C(N)=O)CC2)NC1=O [GIP-371, AGLU-Glutar-Asp-Trp-5Clw-Tap-Glu-leu-[Cys(2Lut)-Amk(DOTA)-Leu-Ile-Cys]-APAc-glu(AGLU)-NH] ({NH(1-deoxy-D-glucityl)-Glutaryl}-DW[Trp(5-Cl)][Pro(4R-NH2)]E[dL]C[αMeK](DOTA)LIC[X1][dE](NH(1-deoxy-D-glucityl))-NH2; linker 7-11 via Pyridine(2,6-diCH2)) | IC50 (competition with 20 nM GIP-057, 4° C. for 1 hour, read-out: pIC50 Category (converted)): < 10 nM

From patent publication US20250296971A1, “GASTRIC INHIBITORY PEPTIDE RECEPTOR LIGANDS” (priority 2021, published 2025)
